We go through 2 compounds from article PMC8067766 (International Journal of Molecular Sciences, 2021).

SMILES strings stand for the structures. Where a SMILES comes first, the peptide text is derived from it.

For one data set, the system named is 46BR.1N fibroblasts. The data set is described as follows: XTT proliferation assay, fibroblasts. The note with it: for increase in proliferation by fibrils compared to control (XTT): fibrillated form, 10 µL of fibrils (50 µg/mL), 48 h, three independent experiments; for stimulation of proliferation (XTT), in words / inhibition of proliferation (XTT), in words: non-fibrillated peptide, 48 and 72 h; for inhibition of proliferation (XTT), in words: up to 25 µg/mL. It is filed as cell-based, human. As for the experimental part:
Immortalized human HaCaT [69, 70] keratinocytes (DKFZ, Heidelberg, Germany) and the human dermal fibroblast cell line 46BR.1N (ECACC, Sigma Aldrich, St. Louis, MO, USA) were used in the study. Cells were routinely grown in culture flasks (growth surface area 25 cm^2) in Dulbecco’s modified Eagle medium (DMEM, Sigma Aldrich, St. Louis, MO, USA), with 4500 mg/L of glucose, 584 mg/L of L-glutamine, sodium pyruvate, and sodium bicarbonate, supplemented with 10% FBS and 100 units/mL of penicillin and 100 μg/mL of streptomycin (Sigma Aldrich, St. Louis, MO, USA), under a humidified atmosphere with 5% CO2 at 37 °C. Medium was changed every 2–3 days.
Lactate dehydrogenase (LDH) activity in cell culture supernatants (Takara, Japan, cat. No. MK401) was measured to determine the cytotoxicity of the tested compounds, and the XTT assay was used to evaluate their effect on cell proliferation. Both tests were performed as previously described according to manufacturers’ instructions. Briefly, cells were seeded into 96-well plates, at a density of 5000 cells per well, in DMEM supplemented with 10% FBS. After 24 h the medium was exchanged for serum-free DMEM containing appropriate concentrations of the tested compounds. Supernatants for LDH analysis were collected after 48 h of incubation. The XTT assay was performed after 48 and 72 h of incubation.
For the analysis of the effect of the peptide fibrils on skin cells, the experiment was performed as described, but the cells were stimulated with 10 µL of the fibrils (50 µg/mL) and incubated for 48 h, when the LDH and XTT assay were then performed.

A short description of data set [1]: Circular dichroism over incubation. It is filed as physicochemical. The note with it: 1.0 mg/mL in PBS pH 7.4, 37 °C with agitation, up to 14 days; centrifuged clear solution, far-UV 195-250 nm. As for the experimental part:
Circular dichroism spectra were recorded on a Jasco J-815 spectropolarimeter (Jasco, Victoria, BC, Canada). Far-UV spectra (195–250 nm) were registered for all peptides dissolved in PBS pH 7.4 at a concentration of 1.0 mg/mL and incubated at 37 °C with agitation. Spectra were recorded before and after 1,2, 3, 7, 10 and 14 days of incubation. All spectra were corrected for the buffer signal. The CD spectra were recorded three times, using a 0.2 mm cell.
For orientation: Circular dichroism is widely used to follow secondary structure.

Data set [2] is described as follows: Peptide stability in human plasma (TCA assay). The note with it: human plasma (EDTA), 37 °C, 300 rpm, TCA 3% precipitation, RP-HPLC UV 223 nm, peak area relative to 0 min, at least triplicates, read-out: peptide loss in human plasma relative to the initial concentration. The class given is in vitro ADME. As for the experimental part:
Peptide stability tests were performed according to a TCA stability assay based on the method used by Nguyen et al.. Peptides were dissolved in water, mixed with human plasma* to a final concentration of 1.0 mg/mL, and incubated at 37 °C with agitation (300 rpm, Thermomixer, Eppendorf AG, Hamburg, Germany). After 0, 1, 2, 3, 6 and 24 h, 80 μL of the solution was taken and mixed with 15% TCA to obtain a final concentration of 3% (v/v). The samples were incubated in ice for 10 min and centrifuged for 10 min (12,000 rpm, Microfuge 16, Beckman Coulter, Brea, CA, USA). Supernatants were analyzed by RP-HPLC on column using a linear gradient of acetonitrile (5–100% over 15 min) with detection at 223 nm. Peptides were quantified by their peak areas relative to the initial peak areas (0 min). All stability tests were performed at least in triplicates. As control samples peptides dissolved only in water under the same conditions were used. To additionally assess the changes in the incubated samples (peptide degradation) mass spectrometry analysis was used. LC-MS experiments were performed using ESI-IT-TOF (Shimadzu, Kyoto, Japan).
* Blood was collected from healthy anonymous donors and EDTA was then used as an anticoagulant. The procedure was approved by the Independent Bioethics Commission for Research of the Medical University of Gdańsk (NKBBN/387/2014).

Data set [3] deals with T1, human neutrophil elastase (Homo sapiens, UniProt P08246).
T1 construct: purchased Sigma Aldrich
T1 sequence (P08246 30-267): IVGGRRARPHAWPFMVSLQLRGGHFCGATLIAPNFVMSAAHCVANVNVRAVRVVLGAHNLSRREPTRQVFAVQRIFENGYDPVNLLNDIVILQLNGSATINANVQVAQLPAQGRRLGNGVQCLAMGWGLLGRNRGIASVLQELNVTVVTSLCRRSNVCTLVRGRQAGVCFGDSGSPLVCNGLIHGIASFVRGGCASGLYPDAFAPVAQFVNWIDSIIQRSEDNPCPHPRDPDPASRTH
The data set is described as follows: Incubation with neutrophil elastase (release of active sequence). It is filed as in vitro ADME. As to conditions: non-fibrillated peptide 1.0 mM, 0.1 M Tris HCl, 500 mM NaCl, 0.05% Triton X-100, 20 mM CaCl2, pH 7.5; enzyme 150 nM; 30 min, 37 °C; RP-UHPLC (PDA) and LC-MS. As to the method:
An enzymatic stability study was performed using the human neutrophil elastase enzyme (Sigma Aldrich, St. Louis, MO, USA). The peptides were dissolved in a buffer (with composition: 0.1 M Tris HCl, 500 mM NaCl, 0.05% Triton X-100, 20 mM CaCl2, pH 7.5), to a final concentration 1.0 mM. The fibrils formed in the aggregation process were dissolved in PBS at pH 7.4 to a concentration of 1 mg/mL. The enzyme was added to the peptide/fibril solution to a concentration of 150 nM and incubated for 30 min (peptides) or 60 min (fibrils), at 37 °C, with agitation. A 10% aqueous TFA solution was added to the reaction mixture to stop the digestion. The progress of the reaction was monitored by RP-UHPLC with a PDA (Photo Diode Array) detector on a Kinetex C8 column (2.6 μm, 100 Å 2.6 × 100 mm, Phenomenex, Torrance, CA, USA), at a gradient of 0–50% B for 15 min, and by LC-MS.

Regarding `CC[C@H](C)[C@H](NC(=O)CNC(=O)[C@H](C)NC(=O)[C@H](CCC(N)=O)NC(=O)CNC(=O)CNC(=O)CNC(=O)[C@@H](NC(=O)[C@@H]1CCCN1C(=O)[C@H](C)NC(=O)[C@H](C)NC(=O)CNC(=O)CNC(=O)CNC(=O)[C@H](CCCCN)NC(=O)[C@H](Cc1c[nH]cn1)NC(=O)CNC(C)=O)C(C)C)C(=O)N[C@H](C(=O)N[C@H](C(N)=O)C(C)C)C(C)C` [FC-GHK] (Ac-GHKGGGAAPVGGGQAGIVV-NH2), in the data set on 46BR.1N fibroblasts, the “increase in proliferation by fibrils compared to control (XTT)” value was “about 10%”; the “stimulation of proliferation (XTT), in words” value was “stimulated proliferation of both tested cell lines at concentrations of 0.01–10 µg/L”; the “inhibition of proliferation (XTT), in words” value is “slight inhibition of the proliferation of skin cells after 72 h stimulation”. Moreover, the “secondary structure by CD” value in data set [1] is given as “disordered structure”. For the same compound, the metabolised at 24 h, 1 mg/mL in data set [2] was determined as 20%. Moreover, the “Degradation Yes/No by human neutrophil elastase” value in data set [3] is listed as “Yes”.

As for `CC[C@H](C)[C@H](NC(=O)CNC(=O)[C@H](C)NC(=O)[C@H](CCC(N)=O)NC(=O)CNC(=O)CNC(=O)CNC(=O)[C@@H](NC(=O)[C@@H]1CCCN1C(=O)[C@H](C)NC(=O)[C@H](C)NC(=O)CNC(=O)CNC(=O)CNC(=O)[C@H](CCCCN)NC(=O)[C@H](Cc1c[nH]cn1)NC(=O)CNC(=O)[C@H](CCCCN)NC(C)=O)C(C)C)C(=O)N[C@H](C(=O)N[C@H](C(N)=O)C(C)C)C(C)C` [FC-KGHK] (Ac-KGHKGGGAAPVGGGQAGIVV-NH2), in the data set with 46BR.1N fibroblasts, the “increase in proliferation by fibrils compared to control (XTT)” value is on record as about 20%; the “stimulation of proliferation (XTT), in words” value is “strongest stimulation was observed for 46BR.1N fibroblasts in concentrations of 0.1–10 µg/mL after 72 h of incubation”; the “inhibition of proliferation (XTT), in words” value is given as “did not inhibit the proliferation of skin cells”. In data set [1], the “secondary structure by CD” value is “disordered structure”. Moreover, the metabolised at 24 h, 1 mg/mL in data set [2] was determined as 20%. In data set [3], the “Degradation Yes/No by human neutrophil elastase” value is on record as “Yes”.
